{"source": "patent US7223733B2", "about": "“Modulation of TRIP-Br function and method of treating proliferative disorders” (National University of Singapore, priority 2004, dated 2007)", "key": {"[1]": {"test_system": "KRIP-1/TRIP-Br PHD-bromodomain interaction", "sequence (Q62318 621-811 limits assumed)": "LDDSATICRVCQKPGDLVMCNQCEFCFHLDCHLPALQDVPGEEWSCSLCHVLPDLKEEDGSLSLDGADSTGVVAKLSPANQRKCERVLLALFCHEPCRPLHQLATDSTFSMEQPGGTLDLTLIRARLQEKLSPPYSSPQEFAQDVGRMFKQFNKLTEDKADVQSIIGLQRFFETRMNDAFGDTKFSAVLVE", "experiment": "Immunoprecipitation assay of GAL4-KRIP-1/TRIP-Br complex formation (in vitro translated proteins)", "type": "binding", "settings": "25 μM decoy peptides pre-incubated with GAL4-KRIP-1", "experimental": "Preparation of proteins by in vitro translation. In vitro translation (IVT) products were synthesized from pcDNA3/TRIP-Br1, pcDNA3/TRIP-Br2 and pBlueScript/GAL4-KRIP-1 using the TNT T7 coupled reticulocyte lysate system (Promega). The in vitro translation reactions were carried out in a total reaction volume of 50 μl by incubating 1.0 μg of the indicated DNA template in nuclease-free water with 30 μl of TNT Quick master mix in the presence of [^35S]-methionine (Met) at 30° C. for 90 minutes.\nImmunoprecipitation assay (IP). The binding reactions for IP were performed by incubating 1.5 μl [^35S]-Met labeled GAL4 or GAL4-KRIP-1 IVT products with 3 μl [^35S]-Met labeled TRIP-Br1 or TRIP-Br2 IVT products in 1×IP buffer (Hsu, S. I. H., et al. EMBO J. 20, 2273-2285 (2001)) at 4° C. for 1 h. For the analysis of decoy peptide-mediated blocking activity, the GAL4-KRIP-1 IVT product was pre-incubated with 25 μM decoy peptides at 4° C. for 30 minutes prior to addition of full-length TRIP-Br1 or TRIP-Br2 IVT products. Protein complexes precipitated using agarose-conjugated anti-GAL4 antibody were resolved by SDS-PAGE and then processed for autoradiography.\nFIG. 1: TRIP-Br decoy peptides antagonize KRIP-1/TRIP-Br PHD-bromodomain interactions. […] GAL4-KRIP-1 was specifically immunoprecipitated by the agarose-conjugated anti-GAL4 antibody (Lanes 3-5 & 7–10) but not by the non-specific control anti-cyclin E antibody (Lane 6); (B) Antagonism of PHD-bromodomain interactions in vivo. U2OS cells were transiently transfected with 0.4 μg of the indicated GAL4 expression constructs and 1.2 μg of pMT3A/KRIP-1, along with 0.4 μg of the minimal luciferase reporter pG5-GL3 and 0.1 μg of the control reporter pCMV/β-gal. The transfected cells were exposed to either vehicle (0.5% DMSO) or 50 μM of the indicated decoy peptides prior to harvesting for sequential assay of luciferase and galactosidase activity. Fold activation refers to luciferase activity normalized to β-galactosidase activity, and is expressed relative to the activity observed with transfection of the reporter alone. […]"}, "[2]": {"test_system": "E2F-regulated genes", "experiment": "Semi-quantitative RT-PCR of E2F-regulated genes in U2OS cells", "type": "cell-based, human", "settings": "50 μM, 16 h", "experimental": "Semi-quantitative RT-PCR. Total RNA was isolated from U2OS cells or U2OS-ER-E2F-1 cells (grown with or without 1.0 μM OHT and/or 10 μg/ml cycloheximide) using the TRIZOL® Reagent (Life Technologies). Total RNA (4 μg) was reverse transcribed using oligo-dT and M-MLV reverse transcriptase in a total reaction volume of 20 μl. Polymerase Chain Reactions (PCR) were carried out on 3 μl cDNA samples in the presence of […] deoxyribonucleotide triphosphates (dNTPs) and 40 μM of specific primer pairs in a total reaction volume of 50 μ. The cycling profile for PCR was as follow: 30 cycles of denaturation (94° C., 30 sec), annealing (51° C., 30 sec) and extension (72° C., 2 min), with a 2-minute initial denaturation step at 94° C. and a 10-minute terminal polishing step at 72° C. Sequences of gene-specific primers are available upon request. PCR amplification products were analyzed by agarose gel electrophoresis.\nFIG. 3: Analysis of E2F-responsive transcription in U2OS cells in response to decoy peptide treatment. (A) β-galactosidase/Luciferase assay of U2OS cells co-transfected with 0.1 μg of pCMV/β-galactosidase and 7.5 μg of the indicated luciferase reporter plasmids. Promoter activity of vehicle-treated samples was normalized to 100% and the activities of the peptide-treated samples were expressed relative to the vehicle-treated control. Values represent the average +/− standard deviation of at least two independent experiments; (B) Semi-quantitative RT-PCR analysis on total RNA for dhfr, cyclin-E, cyclin A2, PCNA, DNA Pola and cdc2 expression in U2OS cells exposed for 16 h to either vehicle (0.5% DMSO) or 50 μM of the indicated decoy peptides. H-actin was included as an internal control."}, "[3]": {"test_system": "U2OS cells", "experiment": "Cell number (Coulter counter) and viability (trypan blue) of U2OS cells", "type": "cell-based, human", "settings": "for total cell number over time: 50 μM, 0, 48 and 72 h, Coulter counter; for viable cells, trypan blue manual count: 50 μM, 72 h, compared to vehicle or *SCR", "experimental": "Determination of cell number and viability. U2OS cells grown in 6-well dishes for 24 h were exposed to 2 ml of growth medium containing either vehicle (0.5% DMSO) or 50 μM decoy peptides for 48 or 72 h. Following treatment, the cells were washed twice with 1×PBS, harvested by trypsinization and re-suspended in 1 ml 1×PBS. 10 μl of cell suspension was taken from each sample and enumerated either electronically or manually. For electronic total cell counts, 10 μl of cell suspension was diluted in 20 ml of isoton® II buffer (Coulter®) and cell number was estimated using an electronic Coulter® counter. For manual counting of viable cells, 10 μl of cell suspension from each sample was mixed with equal volume of trypan blue stain (Sigma, 0.4% w/v in 1×PBS). The number of viable (unstained) cells was enumerated manually using a hemocytometer. FIG. 4: Time-dependent and dose-dependent anti-proliferative effects of the decoy peptides. (A) Time-dependent anti-proliferative effects of the decoy peptides. U2OS cells, exposed to either vehicle (0.5% DMSO) or 50 μM decoy peptides for either 24 or 48 h, were assayed for BrdU incorporation with a colorimetric ELISA assay. Values represent the average +/− standard deviation of two independent experiments; (B) Dose-dependent anti-proliferative effects of the decoy peptides. U2OS cells, exposed to 5, 10, 20 or 50 μM of *SCR (solid line and square), *Br1 (dashed line and triangle) or *Br2 (dashed line and circle) for 48 h, were assayed for BrdU incorporation with a colorimetric ELISA assay. Values represent the average +/− standard deviation of at least two independent experiments; (C) Cell proliferation analysis. Left panel: At 0, 48 and 72 h post decoy peptide treatment, total cell number was determined electronically using a Coulter® counter. Right panel: At 72 h post-treatment, cells were harvested and stained with trypan blue for viable cell count analysis."}}, "note": "Where no end group is shown, it is not given here.", "data": [{"sequence": "ERQIKIWFQNRRMKWKKTGFLTDLTLDDILFADID (ERQIKIWFQNRRMKWKKTGFLTDLTLDDILFADID-NH2) [*Br2]", "values": [{"measurement": "GAL4-KRIP-1/TRIP-Br complex formation (co-IP of TRIP-Br1 or TRIP-Br2)", "setting": "[1]", "result": "dramatically reduced the ability of GAL4-KRIP-1 to co-IP TRIP-Br1 or TRIP-Br2"}, {"measurement": "DNA Polα mRNA expression level", "setting": "[2]", "result": "down-regulated"}, {"measurement": "cdc2 mRNA transcript level", "setting": "[2]", "result": "significant down regulation"}, {"measurement": "dhfr mRNA expression level", "setting": "[2]", "result": "down-regulated"}, {"measurement": "transcriptional activity of PCNA gene", "setting": "[2]", "result": "unaffected"}, {"measurement": "transcriptional activity of cyclin A2 gene", "setting": "[2]", "result": "unaffected"}, {"measurement": "transcriptional activity of cyclin-E gene", "setting": "[2]", "result": "unaffected"}, {"measurement": "total cell number over time", "setting": "[3]", "result": "nearly complete cessation of cell proliferation"}, {"measurement": "viable cells, trypan blue manual count", "setting": "[3]", "result": "significantly fewer viable cells"}]}, {"sequence": "ERQIKIWFQNRRMKWKKGLDEDGLLLFCEGDTIAD (Peptide containing penetratin sequence from Drosophila and random peptide sequence) [*SCR, reference compound]", "values": [{"measurement": "GAL4-KRIP-1/TRIP-Br complex formation (co-IP of TRIP-Br1 or TRIP-Br2)", "setting": "[1]", "result": "did not affect GAL4-KRIP-1/TRIP-Br complex formation"}, {"measurement": "expression profile of the genes under investigation relative to vehicle", "setting": "[2]; six E2F-regulated genes", "result": "negligible effects"}, {"measurement": "total cell number over time", "setting": "[3]", "result": "nearly identical increments in cell number over time"}]}, {"sequence": "ERQIKIWFQNRRMKWKKATGCLLDDGLEGLFEDID (ERQIKIWFQNRRMKWKKATGCLLDDGLEGLFEDID-NH2) [*Br1]", "values": [{"measurement": "GAL4-KRIP-1/TRIP-Br complex formation (co-IP of TRIP-Br1 or TRIP-Br2)", "setting": "[1]", "result": "dramatically reduced the ability of GAL4-KRIP-1 to co-IP TRIP-Br1 or TRIP-Br2"}, {"measurement": "cdc2 mRNA transcript level", "setting": "[2]", "result": "significant down regulation"}, {"measurement": "transcriptional activity of PCNA gene", "setting": "[2]", "result": "unaffected"}, {"measurement": "transcriptional activity of cyclin A2 gene", "setting": "[2]", "result": "unaffected"}, {"measurement": "transcriptional activity of cyclin-E gene", "setting": "[2]", "result": "unaffected"}, {"measurement": "total cell number over time", "setting": "[3]", "result": "nearly complete cessation of cell proliferation"}, {"measurement": "viable cells, trypan blue manual count", "setting": "[3]", "result": "significantly fewer viable cells"}]}]}
